Test [1] deals with catalytic domain of human Bub1 (amino acids 704-1085) (Homo sapiens (Human), UniProt O43683). Kind of test: Bub1 kinase assay (TR-FRET). To be noted: 10 μM ATP, 1 μM peptide substrate; read-out: Biological Assay 1: Bub1 kinase assay median IC50. Format: biochemical. Here is the method:
To this end, 100-fold concentrated compound solutions (in DMSO) were previously prepared by serial dilution (1:3.4) of 2 mM stocks in a clear low volume 384-well source microtiter plate (Greiner Bio-One, Frickenhausen, Germany), from which 50 nl of compounds were transferred into a black low volume test microtiter plate from the same supplier. […] The resulting mixture (5 μl final volume) was incubated at 22° C. during 60 min., and the reaction was stopped by the addition of 5 μl of an aqueous EDTA-solution (50 mM EDTA, in 100 mM HEPES pH 7.5 and 0.2% (w/v) bovine serum albumin) which also contained the TR-FRET detection reagents (0.2 μM streptavidin-XL665 [Cisbio Bioassays, Codolet, France] and 1 nM anti-phosho-Serine antibody [Merck Millipore, cat. #35-001] and 0.4 nM LANCE EU-W1024 labeled anti-mouse IgG antibody [Perkin-Elmer, product no. AD0077, alternatively a Terbium-cryptate-labeled anti-mouse IgG antibody from Cisbio Bioassays can be used]). The stopped reaction mixture was further incubated 1 h at 22° C. in order to allow the formation of complexes between peptides and detection reagents. Subsequently, the amount of product was evaluated by measurement of the resonance energy transfer from the Eu-chelate-antlbody complex recognizing the Phosphoserlne residue to the streptavidin-XL665 bound to the biotin moiety of the peptide. […] IC50 values were calculated by fitting the normalized inhibition data to a 4-parameter logistic equation (Minimum, Maximum, IC50, Hill; Y=Max+(Min−Max)/(1+(X/IC50)Hill)) using a Bayer-proprietary analysis software.
A general note: In TR-FRET formats the signal depends on donor and acceptor labels being close together.

The subject of test [2] is HeLa cells. Kind of test: Proliferation assay (HeLa cell line). Format: cell-based. To be noted: Homo sapiens, 96 h, read-out: Biological Assay 2: Proliferation assay (HeLa cell line) median IC50. Here is the method: Cultivated tumor cells (cells were ordered from ATCC, except HeLa-MaTu and HeLa-MaTu-ADR, which were ordered from EPO-GmbH, Berlin) were plated at a density of 1000 to 5000 cells/well, depending on the growth rate of the respective cell line, in a 96-well multititer plate in 200 μL of their respective growth medium supplemented 10% fetal calf serum. After 24 hours, the cells of one plate (zero-point plate) were stained with crystal violet (see below), while the medium of the other plates was replaced by fresh culture medium (200 μl), to which the test substances were added in various concentrations (0 μM, as well as in the range of 0.001-10 μM; the final concentration of the solvent dimethyl sulfoxide was 0.5%). The cells were incubated for 4 days in the presence of test substances. Cell proliferation was determined by staining the cells with crystal violet: the cells were fixed by adding 20 μl/measuring point of an 11% glutaric aldehyde solution for 15 minutes at room temperature. After three washing cycles of the fixed cells with water, the plates were dried at room temperature. The cells were stained by adding 100 μl/measuring point of a 0.1% crystal violet solution (pH 3.0). After three washing cycles of the stained cells with water, the plates were dried at room temperature. The dye was dissolved by adding 100 μl/measuring point of a 10% acetic acid solution. […] The change of cell number, in percent, was calculated by normalization of the measured values to the aborbtion values of the zero-point plate (=0%) and the absorbtion of the untreated (0 μm) cells (=100%). The IC50 values were determined by means of a 4 parameter fit using the company's own software.

Each structure is given as a SMILES string. Like-named read-outs stand apart in the source and are kept apart here.

Chain of catalytic domain of human Bub1 (amino acids 704-1085) (O43683 704-1085): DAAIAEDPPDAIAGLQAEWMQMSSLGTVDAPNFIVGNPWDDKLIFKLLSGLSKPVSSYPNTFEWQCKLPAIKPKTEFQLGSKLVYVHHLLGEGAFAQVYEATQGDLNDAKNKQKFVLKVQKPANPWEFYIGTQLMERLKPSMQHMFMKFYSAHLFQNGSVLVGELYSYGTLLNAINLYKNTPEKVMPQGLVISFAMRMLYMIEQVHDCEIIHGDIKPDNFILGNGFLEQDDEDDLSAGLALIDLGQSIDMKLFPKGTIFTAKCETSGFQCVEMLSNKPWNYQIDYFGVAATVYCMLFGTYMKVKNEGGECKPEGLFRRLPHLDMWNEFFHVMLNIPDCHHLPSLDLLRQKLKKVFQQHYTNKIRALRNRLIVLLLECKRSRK

With `COc1cnc(-c2nn(Cc3cccc4c3OCCCO4)c3ccccc23)nc1Nc1ccncc1` [Example 2-6-3, 2-[1-(3,4-dihydro-2H-1,5-benzo-dioxepin-6-ylmethyl)-1H-indazol-3-yl]-5-methoxy-N-(pyridin-4-yl)pyrimidin-4-amine], the IC50 was 59 nM in test [1] and at least 10000 nM in test [2].
The corresponding values for `COc1cnc(-c2nn(Cc3c(F)cccc3F)c3ccccc23)nc1Nc1ccncc1` [Example 2-7-1, 2-[1-(2,6-difluorobenzyl)-1H-indazol-3-yl]-5-methoxy-N-(pyridin-4-yl)pyrimidin-4-amine] are 4.8 nM and at least 10000 nM.
Take `COc1cnc(-c2nn(Cc3cccc(SC(F)(F)F)c3)c3ccccc23)nc1Nc1ccncc1` [Example 2-7-3, 5-methoxy-N-(pyridin-4-yl)-2-(1-{3-[(trifluoromethyl)sulfanyl]benzyl}-1H-indazol-3-yl)pyrimidin-4-amine]: the results for the IC50 in test [1] and in test [2] were 430 nM and at least 10000 nM, respectively.
As for `COc1cnc(-c2nn(Cc3ccc(C)c(F)c3F)c3ccccc23)nc1Nc1ccncc1` [Example 2-8-1, 2-[1-(2,3-difluoro-4-methylbenzyl)-1H-indazol-3-yl]-5-methoxy-N-(pyridin-4-yl)pyrimidin-4-amine], the IC50 was 6.7 nM in test [1] and at least 10000 nM in test [2] (4 days, crystal violet).
The corresponding values for `COc1cnc(-c2nn(Cc3ccc(-n4cccn4)cc3)c3ccccc23)nc1Nc1ccncc1` [Example 2-8-3, 5-methoxy-2-{1-[4-(1H-pyrazol-1-yl)benzyl]-1H-indazol-3-yl}-N-(pyridin-4-yl)pyrimidin-4-amine] are 57 nM and 10000 nM.
With `COc1cnc(-c2nn(Cc3ccccc3Cl)c3ccccc23)nc1Nc1ccncc1` [Example 2-10-1, 2-[1-(2-chlorobenzyl)-1H-indazol-3-yl]-5-methoxy-N-(pyridin-4-yl)pyrimidin-4-amine], the IC50 in test [1] is 6.7 nM; in test [2] it was at least 10000 nM.
With `COc1cnc(-c2nn(Cc3ccc(F)c(OC)c3Cl)c3ccccc23)nc1Nc1ccncc1` [Example 2-13-1, 2-[1-(2-chloro-4-fluoro-3-methoxybenzyl)-1H-indazol-3-yl]-5-methoxy-N-(pyridin-4-yl)pyrimidin-4-amine], the IC50 in test [1] was 8 nM; in test [2] (4 days, crystal violet), 3800 nM.
On to `CCOc1ccc(Cn2nc(-c3ncc(OC)c(Nc4ccncc4)n3)c3ccccc32)c(F)c1F` [Example 2-14-1, 2-[1-(4-ethoxy-2,3-difluorobenzyl)-1H-indazol-3-yl]-5-methoxy-N-(pyridin-4-yl)pyrimidin-4-amine], for which the IC50 was determined as 8.3 nM in test [1] and 4700 nM in test [2].
For `COc1cnc(-c2nn(Cc3c(F)c(F)c(OCC(F)(F)F)c(F)c3F)c3ccccc23)nc1Nc1ccncc1` [Example 2-15-1, 5-methoxy-N-(pyridin-4-yl)-2-{1-[2,3,5,6-tetrafluoro-4-(2,2,2-trifluoroethoxy)benzyl]-1H-indazol-3-yl}pyrimidin-4-amine], the IC50 came out at 38 nM in test [1] and 4700 nM in test [2] (4 days, crystal violet).
On to `COc1cnc(-c2nn(Cc3c(F)cc(F)cc3F)c3ccccc23)nc1Nc1ccncc1` [Example 2-17-1, 5-methoxy-N-(pyridin-4-yl)-2-[1-(2,4,6-trifluorobenzyl)-1H-indazol-3-yl]pyrimidin-4-amine], for which the IC50 in test [1] was 8.8 nM; in test [2], at least 10000 nM.
With `COc1cnc(-c2nn(Cc3ccc(Cl)cc3Cl)c3ccccc23)nc1Nc1ccncc1` [Example 2-19-1, 2-[1-(2,4-dichlorobenzyl)-1H-indazol-3-yl]-5-methoxy-N-(pyridin-4-yl)pyrimidin-4-amine], the IC50 in test [1] came out at 10 nM; in test [2] (4 days, crystal violet) it was 3400 nM.
For the compound `COc1cnc(-c2nn(Cc3ccc(I)cc3F)c3ccccc23)nc1Nc1ccncc1` [Example 2-20-1, 2-[1-(2-fluoro-4-iodobenzyl)-1H-indazol-3-yl]-5-methoxy-N-(pyridin-4-yl)pyrimidin-4-amine], the IC50 in test [1] was determined as 11 nM; in test [2], 7300 nM.
The corresponding values for `COc1cnc(-c2nn(Cc3ccccc3Br)c3ccccc23)nc1Nc1ccncc1` [Example 2-21-1, 2-[1-(2-bromobenzyl)-1H-indazol-3-yl]-5-methoxy-N-(pyridin-4-yl)pyrimidin-4-amine] are 12 nM and at least 10000 nM.
The corresponding values for `COc1ccc(Cn2nc(-c3ncc(OC)c(Nc4ccncc4)n3)c3ccccc32)cc1` [Example 2-23-1, 5-methoxy-2-[1-(4-methoxybenzyl)-1H-indazol-3-yl]-N-(pyridin-4-yl)pyrimidin-4-amine] are 13 nM and 9300 nM.
Regarding `COc1cnc(-c2nn(Cc3c(Cl)cc(OC(F)(F)F)cc3Cl)c3ccccc23)nc1N(Cc1c(Cl)cc(OC(F)(F)F)cc1Cl)c1ccncc1` [Example 2-26-2, N-[2,6-dichloro-4-(trifluoromethoxy)benzyl]-2-{1-[2,6-dichloro-4-(trifluoromethoxy)benzyl]-1H-indazol-3-yl}-5-methoxy-N-(pyridin-4-yl)pyrimidin-4-amine], the IC50 in test [1] came out at 840 nM; in test [2] (4 days, crystal violet) it was 2900 nM.
The matching figures for `COc1cnc(-c2nn(Cc3ccc4c(c3)NC(=O)CC4)c3ccccc23)nc1Nc1ccncc1` [Example 2-27-1, 7-({3-[5-methoxy-4-(pyridin-4-ylamino)pyrimidin-2-yl]-1H-indazol-1-yl}methyl)-3,4-dihydroquinolin-2(1H)-one]: 20 nM and at least 10000 nM.
Consider `COc1cnc(-c2nn(Cc3ccc(I)cc3Cl)c3ccccc23)nc1Nc1ccncc1` [Example 2-28-1, 2-[1-(2-chloro-4-iodobenzyl)-1H-indazol-3-yl]-5-methoxy-N-(pyridin-4-yl)pyrimidin-4-amine], for which the figures for the IC50 in test [1] and in test [2] were 22 nM and 8100 nM, respectively.
As to `COc1cc(Cn2nc(-c3ncc(OC)c(Nc4ccncc4)n3)c3ccccc32)cc(OC)c1` [Example 2-29-1, 2-[1-(3,5-dimethoxybenzyl)-1H-indazol-3-yl]-5-methoxy-N-(pyridin-4-yl)pyrimidin-4-amine], the IC50 in test [1] worked out at 23 nM; in test [2] (4 days, crystal violet), 9000 nM.
The matching figures for `COc1cnc(-c2nn(Cc3c(Cl)cccc3C(F)(F)F)c3ccccc23)nc1Nc1ccncc1` [Example 2-30-1, 2-{1-[2-chloro-6-(trifluoromethyl)benzyl]-1H-indazol-3-yl}-5-methoxy-N-(pyridin-4-yl)pyrimidin-4-amine]: 23 nM and 2200 nM.
The matching figures for `COc1cnc(-c2nn(Cc3cc(F)ccc3Cl)c3ccccc23)nc1Nc1ccncc1` [Example 2-31-1, 2-[1-(2-chloro-5-fluorobenzyl)-1H-indazol-3-yl]-5-methoxy-N-(pyridin-4-yl)pyrimidin-4-amine]: 28 nM and at least 10000 nM.
The matching figures for `COc1cnc(-c2nn(Cc3ccc(C#N)cc3F)c3ccccc23)nc1Nc1ccncc1` [Example 2-33-1, 3-fluoro-4-({3-[5-methoxy-4-(pyridin-4-ylamino)pyrimidin-2-yl]-1H-indazol-1-yl}methyl)benzonitrile]: 38 nM and at least 10000 nM.
In the case of `CCOC(=O)Cc1cccc(Cn2nc(-c3ncc(OC)c(Nc4ccncc4)n3)c3ccccc32)c1` [Example 2-35-1, ethyl [3-({3-[5-methoxy-4-(pyridin-4-ylamino)pyrimidin-2-yl]-1H-indazol-1-yl}methyl)phenyl]acetate], the IC50 in test [1] was 52 nM; in test [2] (4 days, crystal violet) it was at least 10000 nM.
The corresponding values for `COc1cnc(-c2nn(Cc3ccc(F)cc3)c3ccccc23)nc1Nc1ccncc1` [Example 2-36-1, 2-[1-(4-fluorobenzyl)-1H-indazol-3-yl]-5-methoxy-N-(pyridin-4-yl)pyrimidin-4-amine] are 58 nM and at least 10000 nM.
